Where a name gives a salt, the structure may show the parent alone.

The source of these data is US20070049593A1 (priority 2004, published 2007).

The target in the first assay is T1, HCV polymerase (Hepatitis C virus genotype 1b, UniProt P26663).
T1 construct: a region encoding NS5B (J Virol 1991 March, 65(3), 1105-13, 544 amino acids after deletion of 47 amino acids on the C-terminal); 6xHis (C); made in house; host or cells: Escherichia coli
T1 sequence (P26663 2420-2963): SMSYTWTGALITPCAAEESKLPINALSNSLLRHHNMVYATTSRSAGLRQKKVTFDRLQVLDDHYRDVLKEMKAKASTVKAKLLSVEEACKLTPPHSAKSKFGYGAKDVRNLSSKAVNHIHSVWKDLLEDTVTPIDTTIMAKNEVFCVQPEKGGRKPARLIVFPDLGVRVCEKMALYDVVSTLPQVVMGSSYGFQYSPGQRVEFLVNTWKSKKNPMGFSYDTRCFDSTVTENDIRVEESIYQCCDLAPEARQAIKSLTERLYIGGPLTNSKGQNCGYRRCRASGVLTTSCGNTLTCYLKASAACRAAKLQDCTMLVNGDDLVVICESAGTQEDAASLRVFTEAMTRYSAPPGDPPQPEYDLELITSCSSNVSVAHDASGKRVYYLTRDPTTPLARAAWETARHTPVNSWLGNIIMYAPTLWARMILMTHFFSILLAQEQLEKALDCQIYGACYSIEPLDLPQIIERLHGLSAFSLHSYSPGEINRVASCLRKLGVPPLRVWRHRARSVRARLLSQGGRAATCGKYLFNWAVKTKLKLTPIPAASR
The experiment in a line: biochemical. Further details: species or system HCV BK strain.
Conditions: not given
The procedure, abridged:
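Recombinant HCV BK-strain NS5B (C-terminal 47 aa deleted, His6-tagged, E. coli), 0.5 μg/ml, run with 5 μg/ml in vitro-transcribed RNA template (polyU/3′X), ATP/GTP/CTP 50 μM, UTP 2 μM plus [3H]UTP, pH 7.5, 25° C, 90 min. TCA-precipitated RNA counted by scintillation; IC50 from activity with vs without compound.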
A word on the IC50: it is the concentration needed to halve the response being measured. With `CC1CCCN1CCCN1CCn2c(c(C3CCCCC3)c3ccc(C(=O)O)cc32)-c2ccc(Cl)cc21` (stereo not shown) [Example 1-368, 3-chloro-13-cyclohexyl-5-[3-(2-methylpyrrolidin-1-yl)propyl]-6,7-dihydro-5H-benzo[5,6][1,4]diazepino[7,1-a]indole-10-carboxylic acid], the IC50 was < 100 nM.
For `CCc1ccc2c(c1)N(CCC1CCCN(C(C)C)C1)CCn1c-2c(C2CCCCC2)c2ccc(C(=O)O)cc21` (stereo not shown) [Example 1-369, 13-cyclohexyl-3-ethyl-5-[2-(1-isopropylpiperidin-3-yl)ethyl]-6,7-dihydro-5H-benzo[5,6][1,4]diazepino[7,1-a]indole-10-carboxylic acid], the IC50 was < 100 nM.
The same measure, in the same setting: under `CCOc1ccc2c(c1)N(CCN1CCCC(COC)C1)CCn1c-2c(C2CCCCC2)c2ccc(C(=O)O)cc21` (stereo not shown) [Example 1-370, 13-cyclohexyl-3-ethoxy-5-[2-(3-methoxymethylpiperidin-1-yl)ethyl]-6,7-dihydro-5H-benzo[5,6][1,4]diazepino[7,1-a]indole-10-carboxylic acid] stands < 100 nM.
Still for that read-out and setting: under `CC(C)N1CCCC(OCCN2CCn3c(c(C4CCCCC4)c4ccc(C(=O)O)cc43)-c3ccc(Cl)cc32)C1` (stereo not shown) [Example 1-371, 3-chloro-13-cyclohexyl-5-[2-(1-isopropylpiperidin-3-yloxy)ethyl]-6,7-dihydro-5H-benzo[5,6][1,4]diazepino[7,1-a]indole-10-carboxylic acid] stands < 100 nM; under `CCC1CCCN(CCCN2CCn3c(c(C4CCCCC4)c4ccc(C(=O)O)cc43)-c3ccc(Cl)cc32)C1` (stereo not shown) [Example 1-372, 3-chloro-13-cyclohexyl-5-[3-(3-ethylpiperidin-1-yl)propyl]-6,7-dihydro-5H-benzo[5,6][1,4]diazepino[7,1-a]indole-10-carboxylic acid dihydrochloride], < 100 nM; under `Cc1cc(COc2ccc3c(c2)N(CCN(C)C)CCn2c-3c(C3CCCCC3)c3ccc(C(=O)O)cc32)no1` [Example 1-374, 13-cyclohexyl-5-(2-dimethylaminoethyl)-3-(5-methylisoxazol-3-ylmethoxy)-6,7-dihydro-5H-benzo[5,6][1,4]diazepino[7,1-a]indole-10-carboxylic acid dihydrochloride], < 100 nM.
Regarding `CC(C)COc1ccc2c(c1)N(CCN1CCCC(C)C1)CCn1c-2c(C2CCCCC2)c2ccc(C(=O)O)cc21` (stereo not shown) [Example 1-375, 13-cyclohexyl-3-isobutoxy-5-[2-(3-methylpiperidin-1-yl)ethyl]-6,7-dihydro-5H-benzo[5,6][1,4]diazepino[7,1-a]indole-10-carboxylic acid dihydrochloride], the IC50 was < 100 nM.
Consider `CCC1CCCN(CCN2CCn3c(c(C4CCCCC4)c4ccc(C(=O)O)cc43)-c3ccc(OCC(C)C)cc32)C1` (stereo not shown) [Example 1-376, 13-cyclohexyl-5-[2-(3-ethylpiperidin-1-yl)ethyl]-3-isobutoxy-6,7-dihydro-5H-benzo[5,6][1,4]diazepino[7,1-a]indole-10-carboxylic acid dihydrochloride], for which the IC50 was < 100 nM.
Still for that read-out and setting: for `COCC1CCCN(CCN2CCn3c(c(C4CCCCC4)c4ccc(C(=O)O)cc43)-c3ccc(OCC(C)C)cc32)C1` (stereo not shown) [Example 1-377, 13-cyclohexyl-3-isobutoxy-5-[2-(3-methoxymethylpiperidin-1-yl)ethyl]-6,7-dihydro-5H-benzo[5,6][1,4]diazepino[7,1-a]indole-10-carboxylic acid dihydrochloride] the value was < 100 nM.

Still in this assay, the particulars now being: 25° C., 90 min; [5,6-3H]UTP incorporation into RNA; read-out: HCV polymerase inhibitory activity IC50.
Regarding `CC(C)COc1ccc2c(c1)N(CCN1CCCCC1)CCn1c-2c(C2CCCCC2)c2ccc(C(=O)O)cc21` [Example 1-373, 13-cyclohexyl-3-isobutoxy-5-[2-(piperidin-1-yl)ethyl]-6,7-dihydro-5H-benzo[5,6][1,4]diazepino[7,1-a]indole-10-carboxylic acid dihydrochloride], the IC50 is < 100 nM.
